In assay [1] the test system is FLT3-ITD-F691L-D835Y Ba/F3 cells. The experiment in a line: In vivo bioluminescent efficacy study in mouse AML model. To be noted: for T/C, reduction of luminescence: compared with AC220-treated and vehicle control mice. As for the experimental part:
(§1) Nude mice (5-6 weeks old)(Orient) were purchased and used after a week. Mice were anesthetized following IACUC approved animal protocol. FLT3-ITD F691L-D835Y, luc+ Ba/F3 cell (Established in-house) suspension (in 0.1 mL RPMI1640 (Welgene) of 1.0×10^6 cells) was injected into tail vein intravenously using a 29-G needle, and an tail mark was added to each animal for identification. After 6 days, the luminescence intensity was measured using IVIS (Perkin Elmer) to calculate the ROI intensity. Once ROI intensity reaches the study-desired minimum intensity (usually 2×106), mice were randomized into different treatment groups based on signal intensity.
Each compound was dissolved in NMP at 20× final concentration and diluted to 1× with the remaining vehicle components (vehicle: 5% NMP, 15% solutol (Sigma-aldrich), 30% PEG400 (Sigma-aldrich), 50% 0.05M citric acid (Sigma-aldrich)). Each compound solution was prepared freshly just before administration. Compounds were administered orally using a mouse sondae once a day, 0.1 mL per mouse. Mice were humanely euthanized if animals experience 20% body weight loss.
D-Luciferin (Promega) was dissolved in DPBS (Welgene) (without Ca2+ and Mg2+) at 15 mg/mL, and the stock solution was prepared after filtration using 0.22 μm syringe filters (BD). Luciferin solution (150 mg/kg in DPBS) was injected intraperitoneally into each mouse (200 μL/mouse). After 5 min, mice were anesthetized for 5 min using isoflurane (JW Pharma). Luminescence signal was read using IVIS200 (exposure time: auto, binning: 8, F/stop: 1). Signal intensity and body weights were measured every 3 days to monitor the ROI intensity and treatment-induced body weight loss. […] Data was analyzed using Living Image software (Caliper, PerkinElmer).
Statistical analysis of luminescence signal intensity, mouse body weight, and spleen/body weight ratio were evaluated using two-way ANOVA. Differences were considered statistically significant at p<0.005.

For assay [2] the test system is unchanged. The experiment in a line: Spleen size in mouse AML model. The class given is in vivo. The settings on record: 15, 30 mg/kg; after drug administration for 9 days. How it is done:
as §1
Each compound was dissolved in NMP at 20× final concentration and diluted to 1× with the remaining vehicle components (vehicle: 5% NMP, 15% solutol (Sigma-aldrich), 30% PEG400 (Sigma-aldrich), 50% 0.05M citric acid (Sigma-aldrich)). Each compound solution was prepared freshly just before administration. […]
Mice were then euthanized by cervical dislocation while they were still under isoflurane anesthesia. The spleens from the mice were isolated and weighted, and spleen weight index was calculated as organ weight (mg) per gram of mouse body weight. […]
Statistical analysis of luminescence signal intensity, mouse body weight, and spleen/body weight ratio were evaluated using two-way ANOVA. […]

Assay [3] has the same test system. The experiment in a line: In vivo life-span (survival) in mouse AML model. The settings on record: for extension of lifespan compared with vehicle control: oral; for Median survival: qd. How it is done: Nude mice (5-6 weeks old)(Orient) were purchased and used after a week. Mice were anesthetized following IACUC approved animal protocol. FLT3-ITD F691L-D835Y, luc+ Ba/F3 cell (Established in-house) suspension (in 0.1 mL RPMI1640 (Welgene) of 1.0×10^6 cells) was injected into tail vein intravenously using a 29-G needle, and an tail mark was added to each animal for identification. After 6 days, the luminescence intensity was measured using IVIS (Perkin Elmer) to calculate the ROI intensity.
Each compound solution was prepared freshly just before administration. Compounds were administered orally using a mouse sondae once a day, 0.1 mL per mouse. Mice were humanely euthanized if animals experience 20% body weight loss.

The target in assay [4] is DAPK3 (Homo sapiens, UniProt O43293). The experiment in a line: Kinase inhibitory activity, full kinase panel. To be noted: single concentration of 1 μM, read-out: %Inhibitory ability. Type of assay: biochemical. How it is done:
(§2) In order to measure inhibitory activity (% inhibitory ability) against a protein kinase with respect to the compound of the present invention, a biochemical assay was performed in a full kinase panel shown in the following Table 1. As an experimental compound, the (S)-5-((3-fluorophenyl)ethynyl)-N-(piperidin-3-yl)-3-ureidothiophene-2-carboxamide synthesized in Example 24 was used.

The target in assay [5] is DRAK2 (Homo sapiens, UniProt O94768). The experiment in a line: Kinase inhibitory activity, full kinase panel. The settings on record: single concentration of 1 μM, read-out: %Inhibitory ability. The class given is biochemical. As for the experimental part:
as §2

In assay [6] the target is EPHA3 (Homo sapiens, UniProt P29320). The experiment in a line: Kinase inhibitory activity, full kinase panel. The class given is biochemical. The settings on record: single concentration of 1 μM, read-out: %Inhibitory ability. As for the experimental part:
as §2

Assay [7] deals with FAK (Homo sapiens, UniProt Q05397). The experiment in a line: Kinase inhibitory activity, full kinase panel. To be noted: single concentration of 1 μM, read-out: %Inhibitory ability. Type of assay: biochemical. How it is done:
as §2

Assay [8] addresses FLT4 (Homo sapiens, UniProt P35916). The experiment in a line: Kinase inhibitory activity, full kinase panel. The class given is biochemical. To be noted: single concentration of 1 μM, read-out: %Inhibitory ability. How it is done: as §2
Assay [9] addresses HCK (Homo sapiens, UniProt P08631). The experiment in a line: Kinase inhibitory activity, full kinase panel. Type of assay: biochemical. The settings on record: single concentration of 1 μM, read-out: %Inhibitory ability. As for the experimental part: as §2
For assay [10], the target named is HPK1 (Homo sapiens, UniProt Q92918). The assay can be described thus: Kinase inhibitory activity, full kinase panel. Type of assay: biochemical. To be noted: single concentration of 1 μM, read-out: %Inhibitory ability. As for the experimental part:
as §2

Assay [11] concerns the target JAK3 (Homo sapiens, UniProt P52333). The experiment in a line: Kinase inhibitory activity, full kinase panel. Type of assay: biochemical. To be noted: single concentration of 1 μM, read-out: %Inhibitory ability. As for the experimental part: as §2
The target of assay [12] is LRRK2 (Homo sapiens, UniProt Q5S007). The assay can be described thus: Kinase inhibitory activity, full kinase panel. The class given is biochemical. To be noted: single concentration of 1 μM, read-out: %Inhibitory ability. As for the experimental part:
as §2

The target in assay [13] is MAP3K3 (Homo sapiens, UniProt Q99759). The experiment in a line: Kinase inhibitory activity, full kinase panel. Type of assay: biochemical. To be noted: single concentration of 1 μM, read-out: %Inhibitory ability. As for the experimental part:
as §2

For assay [14], the target named is MAP4K5 (Homo sapiens, UniProt Q9Y4K4). The experiment in a line: Kinase inhibitory activity, full kinase panel. To be noted: single concentration of 1 μM, read-out: %Inhibitory ability. Type of assay: biochemical. As for the experimental part: as §2
Assay [15] deals with MLK1 (Homo sapiens, UniProt P80192). The assay can be described thus: Kinase inhibitory activity, full kinase panel. The settings on record: single concentration of 1 μM, read-out: %Inhibitory ability. Type of assay: biochemical. As for the experimental part: as §2
For assay [16], the target named is MLK3 (Homo sapiens, UniProt Q16584). The assay can be described thus: Kinase inhibitory activity, full kinase panel. The class given is biochemical. To be noted: single concentration of 1 μM, read-out: %Inhibitory ability. How it is done: as §2
Assay [17] has as its target MST2 (Homo sapiens, UniProt Q13188). The experiment in a line: Kinase inhibitory activity, full kinase panel. The class given is biochemical. To be noted: single concentration of 1 μM, read-out: %Inhibitory ability. How it is done: as §2
In assay [18] the target is PAK4 (Homo sapiens, UniProt O96013). The experiment in a line: Kinase inhibitory activity, full kinase panel. Type of assay: biochemical. The settings on record: single concentration of 1 μM, read-out: %Inhibitory ability. How it is done: as §2
In assay [19] the target is PIP5K2B (Homo sapiens, UniProt P78356). The experiment in a line: Kinase inhibitory activity, full kinase panel. The settings on record: single concentration of 1 μM, read-out: %Inhibitory ability. Type of assay: biochemical. As for the experimental part: as §2
In assay [20] the target is PRKG2 (Homo sapiens, UniProt Q13237). The assay can be described thus: Kinase inhibitory activity, full kinase panel. The settings on record: single concentration of 1 μM, read-out: %Inhibitory ability. Type of assay: biochemical. How it is done: as §2
In assay [21] the target is RIPK4 (Homo sapiens, UniProt P57078). The assay can be described thus: Kinase inhibitory activity, full kinase panel. Type of assay: biochemical. To be noted: single concentration of 1 μM, read-out: %Inhibitory ability. As for the experimental part:
as §2

The target of assay [22] is SIK (Homo sapiens, UniProt P57059). The assay can be described thus: Kinase inhibitory activity, full kinase panel. The class given is biochemical. To be noted: single concentration of 1 μM, read-out: %Inhibitory ability. As for the experimental part: as §2
In assay [23] the target is TAK1 (Homo sapiens, UniProt O43318). The assay can be described thus: Kinase inhibitory activity, full kinase panel. Type of assay: biochemical. To be noted: single concentration of 1 μM, read-out: %Inhibitory ability. How it is done:
as §2

Assay [24] concerns the target YANK1 (Homo sapiens, UniProt Q8WU08). The experiment in a line: Kinase inhibitory activity, full kinase panel. The settings on record: single concentration of 1 μM, read-out: %Inhibitory ability. Type of assay: biochemical. As for the experimental part:
as §2

Sequence of PIP5K2B (P78356 whole entry): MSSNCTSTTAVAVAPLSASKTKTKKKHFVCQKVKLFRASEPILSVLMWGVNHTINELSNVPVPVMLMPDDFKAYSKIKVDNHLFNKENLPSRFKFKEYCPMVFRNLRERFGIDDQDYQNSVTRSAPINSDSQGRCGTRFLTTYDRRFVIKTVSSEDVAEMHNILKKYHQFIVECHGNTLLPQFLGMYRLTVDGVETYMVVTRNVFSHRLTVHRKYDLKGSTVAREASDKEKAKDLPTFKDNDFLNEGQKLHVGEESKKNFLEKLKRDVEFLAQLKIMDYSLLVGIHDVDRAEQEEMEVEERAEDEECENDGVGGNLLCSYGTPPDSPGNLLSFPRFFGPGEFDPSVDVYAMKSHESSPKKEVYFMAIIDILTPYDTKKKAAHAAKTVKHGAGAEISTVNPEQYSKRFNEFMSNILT
Sequence of MAP3K3 (Q99759 whole entry, species assumed): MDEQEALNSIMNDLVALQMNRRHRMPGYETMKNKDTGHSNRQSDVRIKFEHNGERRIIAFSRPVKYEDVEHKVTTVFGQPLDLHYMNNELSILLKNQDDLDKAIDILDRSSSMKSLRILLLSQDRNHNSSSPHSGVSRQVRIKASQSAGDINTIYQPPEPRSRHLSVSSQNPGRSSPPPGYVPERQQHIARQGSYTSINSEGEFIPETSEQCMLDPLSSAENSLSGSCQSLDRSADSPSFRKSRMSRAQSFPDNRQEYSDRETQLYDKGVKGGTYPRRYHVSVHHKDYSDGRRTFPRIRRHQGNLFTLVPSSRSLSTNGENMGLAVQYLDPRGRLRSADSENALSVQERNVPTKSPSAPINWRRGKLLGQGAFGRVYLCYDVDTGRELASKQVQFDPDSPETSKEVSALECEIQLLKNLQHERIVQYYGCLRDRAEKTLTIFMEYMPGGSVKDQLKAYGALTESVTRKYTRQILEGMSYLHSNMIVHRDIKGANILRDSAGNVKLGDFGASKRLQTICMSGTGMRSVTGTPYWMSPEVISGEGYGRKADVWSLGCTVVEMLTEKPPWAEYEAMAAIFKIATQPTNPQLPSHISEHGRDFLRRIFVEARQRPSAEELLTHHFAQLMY
Sequence of MLK1 (P80192 whole entry): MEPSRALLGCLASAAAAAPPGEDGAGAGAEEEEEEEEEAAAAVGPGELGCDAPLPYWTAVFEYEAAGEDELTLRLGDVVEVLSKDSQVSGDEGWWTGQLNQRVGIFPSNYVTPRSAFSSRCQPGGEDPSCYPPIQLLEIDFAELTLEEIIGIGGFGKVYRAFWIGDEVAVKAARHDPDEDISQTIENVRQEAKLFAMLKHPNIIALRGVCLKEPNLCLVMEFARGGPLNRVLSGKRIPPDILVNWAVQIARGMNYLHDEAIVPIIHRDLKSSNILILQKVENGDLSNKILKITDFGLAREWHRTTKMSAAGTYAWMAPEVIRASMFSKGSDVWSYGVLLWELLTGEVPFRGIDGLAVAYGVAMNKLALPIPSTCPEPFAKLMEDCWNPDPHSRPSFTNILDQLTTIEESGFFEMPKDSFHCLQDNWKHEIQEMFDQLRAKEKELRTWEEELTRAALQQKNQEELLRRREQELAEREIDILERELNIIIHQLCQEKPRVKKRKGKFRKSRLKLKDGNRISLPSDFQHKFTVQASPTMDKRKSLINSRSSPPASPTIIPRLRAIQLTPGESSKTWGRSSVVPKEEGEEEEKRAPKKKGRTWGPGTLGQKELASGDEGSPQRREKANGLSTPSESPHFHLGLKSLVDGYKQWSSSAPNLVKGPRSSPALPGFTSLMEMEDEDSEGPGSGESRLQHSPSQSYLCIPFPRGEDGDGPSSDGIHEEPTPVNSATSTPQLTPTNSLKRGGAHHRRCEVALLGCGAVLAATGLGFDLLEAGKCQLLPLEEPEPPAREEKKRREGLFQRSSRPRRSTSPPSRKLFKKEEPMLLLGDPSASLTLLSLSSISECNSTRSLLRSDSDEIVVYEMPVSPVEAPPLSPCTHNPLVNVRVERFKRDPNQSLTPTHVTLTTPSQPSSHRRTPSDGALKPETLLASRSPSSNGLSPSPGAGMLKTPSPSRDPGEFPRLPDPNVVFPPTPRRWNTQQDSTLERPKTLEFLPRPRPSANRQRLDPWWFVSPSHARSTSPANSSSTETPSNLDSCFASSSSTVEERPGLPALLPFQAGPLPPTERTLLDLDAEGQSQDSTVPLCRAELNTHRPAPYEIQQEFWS
Sequence of HPK1 (Q92918 whole entry, species assumed): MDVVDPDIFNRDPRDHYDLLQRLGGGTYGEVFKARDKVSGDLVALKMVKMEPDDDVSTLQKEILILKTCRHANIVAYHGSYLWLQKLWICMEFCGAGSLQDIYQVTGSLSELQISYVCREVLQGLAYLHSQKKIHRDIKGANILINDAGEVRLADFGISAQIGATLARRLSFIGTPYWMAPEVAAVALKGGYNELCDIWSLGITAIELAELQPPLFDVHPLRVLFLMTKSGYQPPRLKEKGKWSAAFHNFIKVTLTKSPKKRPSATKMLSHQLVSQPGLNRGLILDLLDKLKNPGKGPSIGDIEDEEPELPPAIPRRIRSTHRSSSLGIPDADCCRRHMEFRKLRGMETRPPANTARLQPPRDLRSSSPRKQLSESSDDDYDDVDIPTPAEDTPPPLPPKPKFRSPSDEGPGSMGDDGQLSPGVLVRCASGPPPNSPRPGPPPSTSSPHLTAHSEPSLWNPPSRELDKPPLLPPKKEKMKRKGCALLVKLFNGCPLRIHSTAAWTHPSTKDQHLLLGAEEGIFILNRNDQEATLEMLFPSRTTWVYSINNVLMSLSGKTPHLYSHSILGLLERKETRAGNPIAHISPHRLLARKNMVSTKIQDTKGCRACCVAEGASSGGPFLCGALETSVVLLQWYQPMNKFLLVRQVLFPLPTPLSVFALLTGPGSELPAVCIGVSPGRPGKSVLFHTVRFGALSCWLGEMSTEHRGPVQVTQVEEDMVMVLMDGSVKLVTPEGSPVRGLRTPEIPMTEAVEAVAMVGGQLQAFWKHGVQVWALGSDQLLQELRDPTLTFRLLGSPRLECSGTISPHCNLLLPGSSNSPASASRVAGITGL
Sequence of DAPK3 (O43293 whole entry, species assumed): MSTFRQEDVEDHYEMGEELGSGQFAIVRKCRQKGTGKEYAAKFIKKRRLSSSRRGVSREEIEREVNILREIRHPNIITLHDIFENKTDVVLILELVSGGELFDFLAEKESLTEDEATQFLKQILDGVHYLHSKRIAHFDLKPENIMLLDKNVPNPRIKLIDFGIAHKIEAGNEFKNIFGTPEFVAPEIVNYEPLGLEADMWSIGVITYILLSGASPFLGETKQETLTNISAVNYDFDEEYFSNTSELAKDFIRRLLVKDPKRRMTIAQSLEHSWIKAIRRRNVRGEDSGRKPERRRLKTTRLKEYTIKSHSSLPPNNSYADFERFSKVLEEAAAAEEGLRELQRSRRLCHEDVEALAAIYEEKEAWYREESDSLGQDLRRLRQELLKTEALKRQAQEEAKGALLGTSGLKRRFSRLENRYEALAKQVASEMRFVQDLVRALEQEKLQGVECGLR
Sequence of FAK (Q05397 whole entry, species assumed): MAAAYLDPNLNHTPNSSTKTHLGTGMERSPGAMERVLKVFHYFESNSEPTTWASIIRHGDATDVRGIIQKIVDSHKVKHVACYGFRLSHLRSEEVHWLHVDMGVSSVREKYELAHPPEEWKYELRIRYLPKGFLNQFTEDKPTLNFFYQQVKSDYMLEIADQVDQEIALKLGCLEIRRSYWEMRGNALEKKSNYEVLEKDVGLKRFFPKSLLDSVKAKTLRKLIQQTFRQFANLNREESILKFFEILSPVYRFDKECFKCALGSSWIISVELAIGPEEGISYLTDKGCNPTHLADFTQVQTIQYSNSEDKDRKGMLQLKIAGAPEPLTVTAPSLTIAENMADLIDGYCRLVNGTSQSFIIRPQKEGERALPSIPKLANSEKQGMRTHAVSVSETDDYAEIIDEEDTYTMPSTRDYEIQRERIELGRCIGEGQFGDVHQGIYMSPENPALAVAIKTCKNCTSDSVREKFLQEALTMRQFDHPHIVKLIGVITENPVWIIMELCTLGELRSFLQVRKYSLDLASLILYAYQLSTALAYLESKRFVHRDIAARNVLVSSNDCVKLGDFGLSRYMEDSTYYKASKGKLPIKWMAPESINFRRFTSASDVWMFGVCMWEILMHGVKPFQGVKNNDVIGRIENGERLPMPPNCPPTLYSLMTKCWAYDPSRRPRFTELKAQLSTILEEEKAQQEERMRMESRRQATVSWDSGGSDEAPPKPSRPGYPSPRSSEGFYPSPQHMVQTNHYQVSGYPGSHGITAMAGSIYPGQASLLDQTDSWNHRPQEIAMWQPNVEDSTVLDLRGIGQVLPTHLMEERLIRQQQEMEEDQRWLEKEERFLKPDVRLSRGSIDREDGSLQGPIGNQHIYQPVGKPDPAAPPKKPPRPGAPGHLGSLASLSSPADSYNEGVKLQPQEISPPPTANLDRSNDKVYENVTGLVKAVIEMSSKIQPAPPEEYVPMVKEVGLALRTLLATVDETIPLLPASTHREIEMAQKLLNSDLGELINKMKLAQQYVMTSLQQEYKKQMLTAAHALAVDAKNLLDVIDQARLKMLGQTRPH
Sequence of PAK4 (O96013 whole entry): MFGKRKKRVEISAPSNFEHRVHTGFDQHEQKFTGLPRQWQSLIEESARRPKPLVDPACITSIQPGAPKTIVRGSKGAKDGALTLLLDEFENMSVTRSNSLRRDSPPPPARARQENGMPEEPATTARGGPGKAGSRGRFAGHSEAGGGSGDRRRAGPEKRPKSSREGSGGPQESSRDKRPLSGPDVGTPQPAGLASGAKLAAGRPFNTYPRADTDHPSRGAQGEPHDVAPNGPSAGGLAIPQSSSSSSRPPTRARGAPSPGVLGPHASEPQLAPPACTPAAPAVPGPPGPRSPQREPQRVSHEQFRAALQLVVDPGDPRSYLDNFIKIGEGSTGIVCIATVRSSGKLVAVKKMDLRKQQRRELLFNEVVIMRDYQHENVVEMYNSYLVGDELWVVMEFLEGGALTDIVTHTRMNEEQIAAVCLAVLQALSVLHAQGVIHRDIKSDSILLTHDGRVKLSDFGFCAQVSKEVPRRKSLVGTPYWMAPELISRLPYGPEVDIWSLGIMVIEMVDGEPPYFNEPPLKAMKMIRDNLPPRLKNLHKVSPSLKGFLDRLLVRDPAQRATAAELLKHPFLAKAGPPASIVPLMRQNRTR

With `NC(=O)Nc1cc(C#Cc2cccc(F)c2)sc1C(=O)N[C@H]1CCCNC1` [Example 22, (S)-5-((3-fluorophenyl)ethynyl)-N-(piperidin-3-yl)-3-ureidothiophene-2-carboxamide], the “T/C, reduction of luminescence” value is 84.2% in [1] (15 mg/kg orally once per day) and 88.7% in assay [1] (30 mg/kg orally once per day). Also, in assay [1] (2, 4, 7, 10 mg/kg, po, qd), the “tumor inhibition at low dosages (luminescence)” value is on record as “dose-dependent tumor inhibition in vivo from a dosage of 2 mg/kg”. The “spleen size (spleen weight over mouse body weight)” value in [2] is “reduced to the disease free spleen size”. In addition, the “extension of lifespan compared with vehicle control” value worked out at 26 days in [3] (15 mpk) and 29 days in assay [3] (30 mpk). Moreover, the Median survival in [3] (15 mpk, po) was found to be 23; in [3] (30 mpk, po), 27. Also, the “life-span of the mouse model (in words)” value in [3] (po, qd, 15, 30 mg/kg) was “extended significantly the life-span”.
For the compound `Cc1ccc(C#Cc2cc(NC(N)=O)c(C(=O)N[C@H]3CCCNC3)s2)cc1` [Example 24, (S)—N-(piperidin-3-yl)-5-(p-tolylethynyl)-3-ureidothiophene-2-carboxamide], the inhibition at 1 µM in [4] was 84%; in assay [5], 96%; in assay [6] it was 80%; in assay [7], 75%; in [8] it was 94.5%; in assay [9] it was 94.9%. The inhibition at 1 µM in assay [10] stood at 78%; in assay [11] it was 91.1%; in [12], 72%; in assay [13], 94.6%; in assay [14] it was 85%; in [15], 95.9%. Also, the inhibition at 1 µM in [16] was 90.8%; in [17] it was 92.5%; in assay [18], 92.2%; in assay [19] it was 74%; in [20], 96.6%; in assay [21], 97.6%. For the same compound, the inhibition at 1 µM in assay [22] was determined as 80%; in assay [23], 91.5%; in [24], 95.5%.

Source of the values: patent US10442796B2, “2,3,5-substituted thiophene compound as protein kinase inhibitor” (KOREA INSTITUTE OF SCIENCE AND TECHNOLOGY, priority 2016, dated 2019).
